From patent publication US11130780B2, “Inhibitors of growth factor activation enzymes” (Washington University, priority 2015, dated 2021)
pKi: −log10 of the molar value. Values joined by “and” are separate entries in the source; they are usually repeats but may differ in a detail not shown here. Equal entries are not always repeated. Where two headings read alike, the source gives them in different places.

What was measured:
Type in all cases: biochemical
[1] = target: T1, hepsin (Homo sapiens, UniProt P05981); experiment: Fluorescent kinetic enzyme inhibitor assay of hepsin; conditions: Fluorogenic Assay, read-out: Hepsin Ki
T1 construct: purchased R&D Systems 4776-SE-010
Description: (§1) Inhibitors (11-pt serial dilutions, 0-20 μM final concentration in reaction) were serially diluted in DMSO (2% DMSO final concentration) and then mixed with either recombinant serine protease domain of HGFA [Z. Han, P. K. Harris, D. E. Jones, R. Chugani, T. Kim, M. Agarwal, W. Shen, S. A. Wildman, J. W. Janetka, Acs Med Chem Lett 2014, 5, 1219-1224], matriptase (Charles Craik, UCSF) or hepsin* (#4776-SE-010, R&D Systems, Minneapolis, Minn.) in black 384 well plates (Corning #3575. Corning, N.Y.). […] The final substrate concentrations for all assays were at the Km for the respective enzymes. Changes in fluorescence (excitation at 380 nm and emission at 460 nm) were measured at room temperature over time in a Biotek Synergy 2 plate reader (Winnoski, Vt.). Using GraphPad Prism version 6.04 software program, (GraphPad Software, San Diego, Calif., www.graphpad.com), a four parameter curve fit was used to determine the inhibitor IC50s from a plot of the mean reaction velocity versus the inhibitor concentration. The IC50 values represent the average of three separate experimental determinations.

[2] = target: T2, HGFA (Homo sapiens, UniProt Q04756); experiment: Fluorescent kinetic enzyme inhibitor assay of HGFA; conditions: Fluorogenic Assay, read-out: HGFA Ki
T2 construct: His6 tag (N); seven amino acid spacer and seven amino acid TEV cleavage site (N); Honey Bee melittin signal peptide (N); made in house; host or cells: High 5 insect cells (baculovirus; virus raised in Sf9)
T2 sequence (Q04756 373-655): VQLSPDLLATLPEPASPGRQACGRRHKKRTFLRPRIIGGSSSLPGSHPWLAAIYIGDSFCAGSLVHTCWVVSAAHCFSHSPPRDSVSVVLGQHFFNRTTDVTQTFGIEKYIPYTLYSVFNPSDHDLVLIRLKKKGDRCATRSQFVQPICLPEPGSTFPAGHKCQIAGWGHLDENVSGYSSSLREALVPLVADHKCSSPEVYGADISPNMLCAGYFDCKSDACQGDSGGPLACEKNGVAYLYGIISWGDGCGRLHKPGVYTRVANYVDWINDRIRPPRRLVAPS
From the text: Using primers identified as SEQ ID NO 1, SEQ ID NO 2, and standard PCR protocols, the nucleotide sequence encoding amino acids 373-655 of HGFA was synthesized. This PCR product was cloned into the SfoI-HindIII sites of a modified pFastBac HT baculovirus expression vector (Addgene, Cambridge, Mass.). This vector contains a six amino His tag followed by a seven amino spacer and a seven amino acid TEV cleavage site placed immediately downstream of the Honey Bee melittin signal peptide. Using a modified Bac to Bac Expression System (Life Technologies, Carlsbad, Calif.), recombinant HGFA bacmids were obtained by transforming DH10Bac Escherichia coli cells. To obtain HGFA containing baculovirus, purified bacmids were transfected into Sf9 insect cells. After 5 days in culture at 27° C., media was harvested from transfected Sf9 cells. This media was used to prepare baculovirus infected insect cells (BIICs). These BIIICs were used to infect High 5 insect cells. Four days post infection, media was harvested and recombinant protein prepared as follows. Media was chilled to 4° C. and spun at 4000×g for 20 minutes (all subsequent steps were performed at 4° C. unless noted). Clarified media was passed first through a Whatman GF/B 1 um (#1821-047, GE Healthcare Life Sciences, Piscataway, N.J.) and then a 0.22 um PES membrane (#99955, TPP Techno Plastic Products AG, Trasadingen, Switzerland) and then concentrated using a Pall Centramate tangential flow system and Centramate T-series Cassette (#OS010T12, Pall Corporation, Port Washington, N.Y.). Concentrated media was then buffer exchanged in two steps, five volumes of 50 mM Na-phosphate, 500 mM NaCl, pH 6.2, followed by five volumes of 50 mM Na-phosphate, 500 mM NaCl, pH 7.5. The concentrated and buffered exchanged insect cell media was again filtered as above and made 25 mM imidazole (#1202, Sigma-Aldrich, St. Louis, Mo.) and was mixed with nickel agarose beads (#H-321-25, Gold Biotechnology, Inc., St. Louis Mo.). After mixing this slurry for 12 hours, nickel agarose beads were allowed to settle by gravity and then loaded into a column. Beads were washed with buffer (25 mM Na-phosphate, 500 mM NaCl, 25 mM imidazole, pH 8) and the bound protein eluted using (25 mM Na-phosphate, 500 mM NaCl, 250 mM imidazole, pH 8). Using a Amicon Ultra-4 Centrifugal filters (#UFC801008, Merck Millipore, Ltd., Tullagreen, Ireland), peak protein fractions were concentrated and run over a Superdex-200 10/300 GL column (GE Healthcare Life Sciences, Piscataway, N.J.) in 10 mM Tris, 200 mM NaCl, 0.2 mM EDTA, pH 8. HGFA containing fractions were pooled, concentrated, made 50% glycerol, and stored at minus 20° C. Protein was quantitated using a modified Lowry protein assay (#500-0006, Bio-Rad Laboratories, Hercules, Calif.).
as §1

[3] = target: T3, matriptase (Homo sapiens, UniProt Q9Y5Y6); experiment: Fluorescent kinetic enzyme inhibitor assay of matriptase; conditions: Fluorogenic Assay
T3 construct: Charles Craik, UCSF (obtained from another laboratory)
T3 sequence (Q9Y5Y6 615-855 limits assumed): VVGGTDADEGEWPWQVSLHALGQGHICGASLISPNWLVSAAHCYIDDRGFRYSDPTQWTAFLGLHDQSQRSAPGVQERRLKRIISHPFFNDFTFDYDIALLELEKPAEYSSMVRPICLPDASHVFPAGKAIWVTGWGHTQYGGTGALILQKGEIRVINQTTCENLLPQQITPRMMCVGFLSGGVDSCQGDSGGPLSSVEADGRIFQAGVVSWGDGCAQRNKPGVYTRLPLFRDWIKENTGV
Description: as §1

[4] = target: T1, hepsin; experiment: P4-P2 substrate specificity using HyCoSuL, hepsin; parameters: concentration or dose not given beside the values; conditions: HyCoSuL substrate library; for P2 Position % Activity Hepsin: amino acid fixed at P2 position; for P3 Position % Activity Hepsin: amino acid fixed at P3 position; for P4 Position % Activity Hepsin: amino acid fixed at P4 position
Description: (§2) Each of the P4, P3, and P2 sublibraries were screened at the 100 μM concentration with hepsin either HGFA in a 100 μL final volume per well (99 μL of protease in buffer+1 μL of 10 mM substrates mixture). The total time of the assay was 30 minutes, however only linear portions of the progress curve (5-15 minutes) were used for velocity (RFU/s) calculations. Each sublibrary screening was repeated at least 3-times and the average value calculated from each measurement was used to create the substrate specificity matrix—the best recognized amino acid in each position was set to 100%, and other amino acids were adjusted accordingly.
Recombinant human hepsin (10 μg in 20 uL, 4776-SE-010, R&D Systems) was added to the 100 μL of activation buffer (0.1 M Tris, 0.15 M NaCl, 0.01 M CaCl2, 0.05% TRITON-X, pH=8.0) and incubated at 37° C. for 24 hours (hepsin concentration in activation buffer 2 μM). Once activated hepsin was diluted in assay buffer (0.05 M Tris, pH=9.0) to the final concentration of 4 nM and incubated at 37° C. for 15 minutes before added to a substrate.

[5] = target: T4, HGFA (Homo sapiens, UniProt Q04756); experiment: P4-P2 substrate specificity using HyCoSuL, HGFA; parameters: P3 Position % Activity HGFA / P2 Position % Activity HGFA: concentration or dose not given beside the values; P4 Position % Activity HGFA: tested at 100 µM; conditions: HyCoSuL substrate library; for P2 Position % Activity HGFA: amino acid fixed at P2 position; for P3 Position % Activity HGFA: amino acid fixed at P3 position; for P4 Position % Activity HGFA: amino acid fixed at P4 position
T4 sequence (Q04756 408-655 limits assumed): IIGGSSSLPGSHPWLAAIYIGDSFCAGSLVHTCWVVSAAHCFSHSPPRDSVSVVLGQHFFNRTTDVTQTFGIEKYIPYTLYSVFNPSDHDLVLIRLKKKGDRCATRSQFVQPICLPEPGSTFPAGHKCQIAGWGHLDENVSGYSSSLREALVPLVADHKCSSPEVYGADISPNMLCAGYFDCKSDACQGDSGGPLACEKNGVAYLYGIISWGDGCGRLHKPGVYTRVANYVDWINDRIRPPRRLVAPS
T4 sequence (Q04756 373-407 partner limits assumed): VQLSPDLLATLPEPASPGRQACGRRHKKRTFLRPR
Description: as §2
HFGA enzyme was diluted in the assay buffer (0.15 M NaCl, 0.025 M Tris, 0.005 M CaCl2, pH=8.0) to the final concentration of 10-20 nM (depending of sublibrary) and incubated at 25° C. for 30 minutes before added to a substrate.

T1 sequence (P05981 163-417 limits assumed): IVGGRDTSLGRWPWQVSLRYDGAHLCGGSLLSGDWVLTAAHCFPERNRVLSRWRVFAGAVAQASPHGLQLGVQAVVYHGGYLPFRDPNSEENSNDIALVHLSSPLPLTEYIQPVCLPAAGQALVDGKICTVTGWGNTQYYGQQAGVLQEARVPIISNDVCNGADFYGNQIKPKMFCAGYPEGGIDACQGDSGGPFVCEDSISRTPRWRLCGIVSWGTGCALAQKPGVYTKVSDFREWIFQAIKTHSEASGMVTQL
T1 sequence (P05981 45-162 partner limits assumed): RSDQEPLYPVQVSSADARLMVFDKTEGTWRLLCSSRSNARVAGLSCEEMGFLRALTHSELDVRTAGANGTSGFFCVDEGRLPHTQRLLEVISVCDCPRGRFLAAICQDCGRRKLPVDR

N=C(N)NCCC[C@H](NC(=O)[C@H](Cc1ccccc1)NC(=O)[C@H](N)Cc1c[nH]c2ccccc12)C(=O)c1nc2ccc(C(=O)O)cc2s1 [Compound 1-45A1, H-dWFR-kbt-COOH]
pKi ([1]; Table 6.1): 8.85
pKi ([2]; Table 6.1): 6.01

N=C(N)c1cccc(C[C@H](NS(=O)(=O)c2ccc3ccccc3c2)C(=O)N2CCC(c3ccccc3)CC2)c1 [Compound 16, (S)-3-(2-(Naphthalene-2-sulfonamido)-3-oxo-3-(4-phenylpiperidin-1-yl)propyl)benzimidamide]
pKi ([1]; Table 9.1): 5.48
pKi ([3]; Table 9.1): 6.52
pKi ([2]; Table 9.1): 5.00

N=C(N)c1cccc(C[C@H](NS(=O)(=O)c2ccc3ccccc3c2)C(=O)N2CCN(C(=O)NCc3ccccc3)CC2)c1 [Compound 17a, (S)—N-Benzyl-4-(3-(3-carbamimidoylphenyl)-2-(naphthalene-2-sulfonamido)propanoyl)piperazine-1-carboxamide]
pKi ([1]; Table 9.1): 6.00 and 5.98
pKi ([3]; Table 9.1): 5.69 and 5.59
pKi ([2]; Table 9.1, listed as FMF-1-279-003): 4.85
pKi ([2]; Table 9.1): 4.85

Cc1ccc(S(=O)(=O)N[C@@H](Cc2cccc(C(=N)N)c2)C(=O)N2CCC[C@H](NC(=O)OCc3ccccc3)C2)cc1 [Compound 18, Benzyl (S)-1-((S)-3-(3-carbamimidoylphenyl)-2-(4-methylphenylsulfonamido)propanoyl)piperidin-3-ylcarbamate]
pKi ([1]; Table 9.2): 5.64
pKi ([3]; Table 9.2): 6.00
pKi ([2]; Table 9.2): < 4.30

Cc1ccc(S(=O)(=O)N[C@@H](Cc2cccc(C(=N)N)c2)C(=O)N2CCN(C(=O)OCc3ccccc3)CC2)cc1 [Compound 25h, (S)-Benzyl 4-(3-(3-carbamimidoylphenyl)-2-(4-methylphenylsulfonamido)propanoyl)piperazine-1-carboxylate]
pKi ([1]; Table 9.1): 5.62
pKi ([2]; Table 9.1): < 4.30

CC(C)c1cc(C(C)C)c(S(=O)(=O)N[C@@H](Cc2cccc(C(=N)N)c2)C(=O)N2CCN(C(=O)C3CCNCC3)CC2)c(C(C)C)c1 [Compound 26]
pKi ([1]; Table 9.1): 5.09

CC(C)C(=O)N1CCN(C(=O)[C@H](Cc2cccc(C(=N)N)c2)NS(=O)(=O)c2ccc3ccccc3c2)CC1 [Compound 29]
pKi ([1]; Table 9.1): < 4.70
pKi ([3]; Table 9.1): < 4.70

CC(C)CN1CCN(C(=O)[C@H](Cc2cccc(C(=N)N)c2)NS(=O)(=O)c2ccc3ccccc3c2)CC1 [Compound 30]
pKi ([1]; Table 9.1): 5.31
pKi ([3]; Table 9.1): 4.91

N=C(N)c1cccc(C[C@H](NS(=O)(=O)c2ccc3ccccc3c2)C(=O)N2CCN(C(=O)Cc3cccc(O)c3)CC2)c1 [Compound 31]
pKi ([1]; Table 9.1): 5.77
pKi ([3]; Table 9.1): 5.36

N=C(N)c1cccc(C[C@H](NS(=O)(=O)c2ccc3ccccc3c2)C(=O)N2CCN(C(=O)Cc3ccc(F)cc3)CC2)c1 [Compound 32]
pKi ([1]; Table 9.1): 6.00
pKi ([3]; Table 9.1): 5.55

N=C(N)NCCC[C@H](NC(=O)[C@H](CCC(N)=O)NC(=O)OCC1c2ccccc2-c2ccccc21)C(=O)c1nc2ccccc2s1 [Compound 7185-6, Fmoc-QR-kbt]
pKi ([3]; Table 6.1): 8.80

CCOC(=O)N1CCN(C(=O)[C@H](Cc2cccc(C(=N)N)c2)NS(=O)(=O)c2ccc3ccccc3c2)CC1 [FMF-1-275-004]
pKi ([1]; Table 9.1): 4.40
pKi ([3]; Table 9.1): 5.56

D-Val
P2 Position % Activity Hepsin [4]: 0.00%
P3 Position % Activity Hepsin [4]: 27.04%
P4 Position % Activity Hepsin [4]: 22.58%
P2 Position % Activity HGFA [5]: 0.00%
P3 Position % Activity HGFA [5]: 5.76%
P4 Position % Activity HGFA [5]: 8.25%

L-Dab
P2 Position % Activity Hepsin [4]: 13.49%
P3 Position % Activity Hepsin [4]: 48.55%
P4 Position % Activity Hepsin [4]: 47.53%
P2 Position % Activity HGFA [5]: 0.50%
P3 Position % Activity HGFA [5]: 29.40%
P4 Position % Activity HGFA [5]: 16.76%

L-Pip
P2 Position % Activity Hepsin [4]: 10.66%
P3 Position % Activity Hepsin [4]: 1.64%
P4 Position % Activity Hepsin [4]: 34.68%
P2 Position % Activity HGFA [5]: 1.75%
P3 Position % Activity HGFA [5]: 0.83%
P4 Position % Activity HGFA [5]: 9.25%

β-Ala
P2 Position % Activity Hepsin [4]: 0.00%
P3 Position % Activity Hepsin [4]: 22.78%
P4 Position % Activity Hepsin [4]: 30.74%
P2 Position % Activity HGFA [5]: 0.24%
P3 Position % Activity HGFA [5]: 15.95%
P4 Position % Activity HGFA [5]: 10.07%
